# Laboratory results from patent US20120016011A1, “RNA Interference Mediated Inhibition of Connective Tissue Growth Factor (CTGF) Gene Expression Using Short Interfering Nucleic Acid (siNA)” (Merck Sharp & Dohme Corp., priority 2009, published 2012).
# [invAb] = inverted abasic unit; m = 2'-O-methyl; r = 2'-OH (RNA); f = 2'-fluoro
# Tests used:
# CTGF mRNA [1] = experiment: CTGF mRNA knockdown (Taqman RT-PCR) after siNA transfection of human NHLF cells; assay type: cell-based; conditions: 10 nM siNA, 24 hrs, average of 3 experiments, vs non-targeting control
# Procedure, shortened: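 Normal human lung fibroblasts (5000 cells/well) were transfected 24 h after plating with 10 nM siNA complexed with RNAiMax and harvested 24 h later without a media change. CTGF mRNA was measured by TaqMan RT-qPCR on Cells-to-CT lysates, with β-actin and GAPDH assayed alongside. Knockdown was calculated by comparative Ct (ΔΔCt) against non-targeting control siNA.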
# CTGF mRNA [2] = experiment: CTGF mRNA knockdown (Taqman RT-PCR) after siNA transfection of mouse NIH 3T3 cells; assay type: cell-based; conditions: mouse NIH3T3 cells, 10 nM siNA, 24 hrs, average of 3 experiments, vs non-targeting control
# Procedure, shortened: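 Mouse NIH 3T3 cells, 5000/well, transfected 24 h after plating with siNA at 10 nM final using RNAiMax, 24 h exposure without media change. CTGF mRNA by TaqMan RT-qPCR with GAPDH, knockdown via comparative Ct (2^−ΔΔCt) against non-targeting control siNA.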
Substance,% KD Human (CTGF mRNA [1]),% KD Mouse (CTGF mRNA [2])
"48078-DC: siNA duplex; sense SEQ ID NO: 121 B GGuAcuAGcuGAGGuuAuu TTB; antisense SEQ ID NO: 122 AAUAAccucAGcuAGuAccUU (sense GGUACUAGCUGAGGUUAUUTT; antisense AAUAACCUCAGCUAGUACCUU; sense: DNA at AGT, 2'-fluoro at CU, [invAb] at 5' end, 3' end, backbone not given here; antisense: sugars from the 5' end rrrmmffffmmffmmfmffmm, backbone not given here)",31 ± 6%,69 ± 1%
"48079-DC: siNA duplex; sense SEQ ID NO: 123 B ucAAGAccuGuGccuGccA TTB; antisense SEQ ID NO: 124 UGGcAGGcAcAGGucuuGAUU (sense UCAAGACCUGUGCCUGCCATT; antisense UGGCAGGCACAGGUCUUGAUU; sense: DNA at AGT, 2'-fluoro at CU, [invAb] at 5' end, 3' end, backbone not given here; antisense: sugars from the 5' end rrrfmmmfmfmmmffffmmmm, backbone not given here)",21 ± 11%,17 ± 6%
"48080-DC: siNA duplex; sense SEQ ID NO: 125 B AGGAAGAuGuAcGGAGAcA TTB; antisense SEQ ID NO: 126 UGUcuccGuAcAucuuccuUU (sense AGGAAGAUGUACGGAGACATT; antisense UGUCUCCGUACAUCUUCCUUU; sense: DNA at AGT, 2'-fluoro at CU, [invAb] at 5' end, 3' end, backbone not given here; antisense: sugars from the 5' end rrrffffmfmfmfffffffmm, backbone not given here)",71 ± 2%,56 ± 2%
